Results taken from article PMC7555349, “1,4-Disubstituted-1,2,3-Triazole Compounds Induce Ultrastructural Alterations in Leishmania amazonensis Promastigote: An in Vitro Antileishmanial and in Silico Pharmacokinetic Study” (International Journal of Molecular Sciences, 2020).
Read-outs that look alike come from different tables or passages of the source.

Legend:
[1] = system: Leishmania amazonensis promastigotes; test: Transmission electron microscopy of treated promastigotes; type: cell-based; settings: 24 h of treatment at IC50
Procedure: The parasites were fixed with 2.5% glutaraldehyde in a 0.1 M sodium-cacodylate buffer, pH 7.2 overnight. Then, parasites were washed three times with 0.1 M sodium-cacodylate buffer, post-fixed in a solution composed by 1% osmium tetroxide, 0.8% potassium ferrocyanide, and 5 mM calcium chloride, dehydrated in graded acetone and embedded in EPON 812.

[2] = system: Leishmania amazonensis promastigote; test: Activity against promastigote forms (MTT); type: cell-based; settings: for IC50: read-out: IC50 Promastigote
Procedure: Leishmania amazonensis (MHOM/BR/76/MA-76) promastigote forms of were cultured at 26 °C in Schneider’s Insect medium added with 10% fetal bovine sera (FBS), 100 U/mL of penicillin and 100 µg/mL of streptomycin. Parasite cultures with a maximum of seven in vitro passages were used. […] Blanks composed by wells without parasites and wells with parasites plus DMSO 1% only were used as controls. A modified colorimetric method with tetrazolium-dye MTT was used to evaluate parasite viability. A quantity of 10 µL of MTT (5 mg/mL) was added to each well. After five hours, 150 µL of DMSO was added to each well to dissolve the formazan crystals. Absorbance was read on a spectrophotometer at a wavelength of 570 nm. The data was normalized and the results were used to calculate the IC50 (50% inhibition of parasite growth). Miltefosine was used as a reference drug.

Cytotoxicity assay (MTT) = type: cell-based, BALB/c mice; settings: mouse
Procedure: The peritoneal macrophages were obtained from BALB/c mice elicited with 3 mL Brewer thioglycollate medium for 72 h, intraperitoneal. After euthanasia, cells were obtained by peritoneal washing with PBS, centrifuged at 4000 rpm for 5 min, and suspended in RPMI 1640 medium plus 10% FBS, 100 U/mL of penicillin and 100 µg/mL of streptomycin [50]. The cells were immediately used in experiments and maintained at 37 °C and 5% CO2.
Blanks were composed by wells without cells and wells with cells plus 1% of DMSO only. Cell viability was carried out by the modified MTT colorimetric method as described before. Tem microliters of MTT at 5 mg/mL was added to each well and incubated for two hours at 37 °C and 5% CO2. The plate was then centrifuged for five minutes at 1500 rpm, the supernatants were removed and the formazan crystals solubilized with 100 μL of DMSO in a shaker-plate for 10 min. The absorbance was determined in a spectrophotometer at a wavelength of 570 nm.

[3] = system: Leishmania amazonensis intracellular amastigotes; test: Activity against intracellular amastigote in infected peritoneal macrophages, and selectivity index; type: cell-based; settings: for amastigotes per infected cell / number of amastigotes per 200 cells / parameters of infection (amastigotes per 200 cells, percentage of infected cells, amastigotes per infected cell): compared with untreated infected cells; for IC50: Leishmania amazonensis, Peritoneal macrophage, in Mus musculus, read-out: IC50 Intracellular Amastigote; for SI (selectivity index): ratio of CC50 versus the IC50 for intracellular amastigotes
Procedure: Activity against the intracellular amastigotes was carried out in 24-well plates with coverslips with peritoneal macrophages (5 × 10^5 cells/well). Cells were infected with L. amazonensis promastigote forms using a ratio of 10:1 parasite/cell. After 6 h after infection the cells were washed three times with PBS to remove non-internalized parasites. […] The infected and treated cells adhered to the coverslips were fixed with Bouin, stained with Giemsa’s azur-eosin-methylene blue and examined by light microscopy. […] The percentage of infected cells was determined by number of infected cells divided by two. […] The selectivity index was calculated from the ratio of CC50 versus the IC50 for intracellular amastigotes.

[4] = system: BALB/c peritoneal macrophages; test: Nitrite quantification (Griess) in supernatant of macrophages stimulated with L. amazonensis; type: cell-based, BALB/c mice; settings: compound at 18.7 μM, 48 h
Procedure: BALB/c peritoneal macrophages at 5 × 10^6 cells/mL were stimulated with L. amazonensis promastigotes (10:1 parasites:cell) for one hour, and treated with different concentrations of triazole compounds for 48 h. Nitrite quantification of the supernatant of the cells was performed with Griess reagent. […] The nitrite concentrations were obtained from the standard curve of sodium nitrite (100 to 0.3 μM).

[5] = L. amazonensis promastigotes, 24 h of treatment per table title, MTT
[6] = Leishmania amazonensis, 24 h, L. amazonensis promastigotes, 24 h of treatment per table title, MTT
[7] = BALB/c peritoneal macrophages, 24 h of treatment, MTT, read-out: CC50
[8] = L. amazonensis in BALB/c peritoneal macrophages, 24 h of treatment

IC50 [2, 6] [µM]	Structure (SMILES)	ultrastructural alterations in promastigotes [1]	IC50 [2, 5] [µM]	CC50 at 24 h (Cytotoxicity assay (MTT); [7]) [µM]	number of amastigotes per 200 cells ([3]; 37.5 μM, 24 h)	IC50 [3, 8] [µM]	SI (selectivity index) [3]	parameters of infection (amastigotes per 200 cells, percentage of infected cells, amastigotes per infected cell) ([3]; 37.5 μM, 24 h)	other results
> 50	O=Cc1ccccc1-n1cc(COc2ccccc2)nn1 [Compound 1]		53.7 ± 8.47	221 ± 4.82					
> 300	O=c1ccc2cc(-n3cc(COc4ccccc4)nn3)ccc2o1 [Compound 10]			> 600					IC50 Promastigote [2, 5]: did not exhibit any such activity even at the maximum analyzed concentration
	CCCCCCCCCCCCCCCCOP(=O)([O-])OCC[N+](C)(C)C [Miltefosine, miltefosine, reference compound]								IC50 ([2]; Leishmania amazonensis, 24 h): 8.56 ± 0.695 µM; CC50 at 24 h (Cytotoxicity assay (MTT); BALB/c): 153 ± 3.85 µM; parameters of infection (amastigotes per 200 cells, percentage of infected cells, amastigotes per infected cell) ([3]; 25 and 12.5 μM, 24 h): reduction of all three parameters of infection; IC50 ([3]; 24 h): 11.6 ± 1.79 µM
> 300	OCc1ccccc1-n1cc(COc2ccccc2)nn1 [Compound 8]			> 600					IC50 Promastigote [2, 5]: did not exhibit any such activity even at the maximum analyzed concentration
> 50	O=Cc1ccccc1-n1cc(COc2cccc(O)c2)nn1 [Compound 3]		50.9 ± 4.57	308 ± 4.07					
> 50	O=Cc1ccccc1-n1cc(-c2ccccc2)nn1 [Compound 7]		63 ± 5.88	412 ± 4.92					

Structure (SMILES)	IC50 [2, 6] [µM]	ultrastructural alterations in promastigotes [1]	IC50 [2, 5] [µM]	CC50 at 24 h (Cytotoxicity assay (MTT); [7]) [µM]	number of amastigotes per 200 cells ([3]; 37.5 μM, 24 h)	IC50 [3, 8] [µM]	SI (selectivity index) [3]	parameters of infection (amastigotes per 200 cells, percentage of infected cells, amastigotes per infected cell) ([3]; 37.5 μM, 24 h)	other results
O=Cc1ccccc1-n1cc(COc2cccc(OCc3cn(-c4ccccc4C=O)nn3)c2)nn1 [Compound 2]	< 10	increase in lipid corpuscles (white arrows), electron dense vesicles inside small vacuoles in the cytoplasm	8.85 ± 3.44	248 ± 2.52	decreased	37.9 ± 3.35	6.55		amastigotes per infected cell ([3]; 37.5 μM, 24 h): decreased
Cc1ccc(S(=O)(=O)N/N=C/c2ccccc2-n2cc(COc3ccccc3)nn2)cc1 [Compound 5]	< 10	lipid corpuscles (white arrows) (Figure 6A), extension of the kinetoplast containing granular material	8.81 ± 3.93	58 ± 2.65		32.3 ± 2.26	1.79	reduced all the three parameters of infection	
C#CCOc1cccc(OCc2cn(-c3ccccc3C=O)nn2)c1 [Compound 4]	~15	swelling of the kinetoplast and a change in chromatin distribution	15.7 ± 5.42	145 ± 4.1	statistically decreased	150 ± 6.37	0.96	did not significantly alter the other parameters of infection	increase in IC50 value against intracellular amastigote compared to promastigote forms [3]: 9.5 fold
C(=N\Nc1ccccc1)/c1ccccc1-n1cc(COc2ccccc2)nn1 [Compound 6]	~15	lipid corpuscles (white arrows) (Figure 7A), large vacuoles containing electron-dense material	14.6 ± 4.39	547.9 ± 3.26	remarkable reduction	17.8 ± 3.26	30.81	altered all the three parameters of infection	amastigotes per infected cell ([3]; 18.7 μM, 24 h): still able to reduce; number of amastigotes per 200 cells ([3]; 18.7 μM, 24 h): still able to reduce; nitrite level relative to untreated infected macrophages [4]: 2.3 fold
